Data as given in DBAASP.
≈ marks a conversion by molar mass, not a printed value.

Columns and labels:
Assay in all cases: ≥ marks a high value that may be exact or a test limit, other limits are often not marked, values filed in µg/mL are converted to µM
[1] = test system: Staphylococcus aureus ATCC 6538
[2] = test system: Pseudomonas aeruginosa ATCC 9027
[3] = test system: Candida albicans ATCC 2002
[4] = test system: Escherichia coli ATCC 25922
[5] = test system: Staphylococcus aureus
[6] = test system: Escherichia coli
[7] = test system: Bacillus cereus
[8] = test system: Bacillus subtilis
[9] = test system: Enterococcus faecalis ATCC 29212
[10] = test system: Staphylococcus aureus ATCC 29213
[11] = test system: Pseudomonas aeruginosa ATCC 27853
[12] = test system: Staphylococcus aureus ATCC 25923

Row | MIC [5] [µM] | MIC [6] [µM] | MIC [7] [µM] | Compound | also measured
1 |  |  |  | CC(C)C[C@H](NC(=O)[C@H](C)NC(=O)[C@H](CC(C)C)NC(=O)[C@H](CCCCN)NC(=O)[C@H](C)NC(=O)[C@H](CC(C)C)NC(=O)[C@H](CCCCN)NC(=O)[C@H](CCCCN)NC(=O)[C@H](C)NC(=O)[C@H](CC(C)C)NC(=O)[C@H](CCCCN)NC(=O)[C@H](C)NC(=O)[C@H](CC(C)C)NC(=O)[C@H](CCCCN)NC(=O)[C@H](CCCCN)NC(=O)[C@H](C)NC(=O)[C@@H](N)C(C)C)C(N)=O [VAKKLAKLAKKLAKLAL] | MIC [1]: 2.77 µM (≈ 5 µg/mL); MIC [2]: 8.3 µM (≈ 15 µg/mL)
2 |  |  |  | CC[C@H](C)[C@H](NC(=O)[C@@H](NC(=O)[C@@H](NC(=O)[C@@H]1CCCN1C(=O)[C@H](Cc1c[nH]c2ccccc12)NC(=O)[C@H](Cc1ccccc1)NC(=O)[C@H](CCCN=C(N)N)NC(=O)[C@H](CCCCN)NC(=O)[C@@H](NC(=O)[C@@H](N)CCCN=C(N)N)[C@@H](C)CC)C(C)C)C(C)C)C(=O)N[C@@H](CCCN=C(N)N)C(=O)N[C@H](C(=O)N[C@H](C(=O)N[C@H](C(=O)N[C@@H](C)C(=O)NCC(=O)N[C@@H](Cc1ccc(O)cc1)C(=O)N[C@@H](CC(N)=O)C(=O)N[C@@H](CC(C)C)C(=O)N[C@@H](Cc1ccc(O)cc1)C(=O)N[C@@H](CCCN=C(N)N)C(=O)O)C(C)C)C(C)C)[C@@H](C)O [RIKRFWPVVIRTVVAGYNLYR] | MIC [3]: 3.6 µM (≈ 9.38 µg/mL); MIC [4]: 3.6 µM (≈ 9.38 µg/mL)
3 | > 57.5 | 57.5 (≈ 128 µg/mL) | ≥ 57.5 | CC(C)C[C@H](NC(=O)[C@@H](N)Cc1ccccc1)C(=O)NCC(=O)N[C@H](C(=O)N[C@H](C(=O)N[C@@H](Cc1ccccc1)C(=O)N[C@@H](CCCCN)C(=O)N[C@@H](CCCCN)C(=O)N[C@@H](C)C(=O)N[C@@H](CO)C(=O)N[C@@H](CCCCN)C(=O)N[C@H](C(=O)N[C@@H](Cc1ccccc1)C(=O)N1CCC[C@H]1C(=O)N[C@@H](CCCCN)C(=O)N[C@H](C(=O)N[C@@H](Cc1ccccc1)C(=O)NCC(=O)N[C@@H](CCCCN)C(=O)N[C@H](C(=O)O)C(C)C)C(C)C)C(C)C)C(C)C)C(C)C [FLGVVFKKASKVFPKVFGKV] | 
4 |  |  |  | CC(C)C[C@H](NC(=O)[C@H](CC(C)C)NC(=O)[C@H](C)NC(=O)[C@H](CCCCN)NC(=O)[C@H](C)NC(=O)[C@H](CC(C)C)NC(=O)[C@H](CCCCN)NC(=O)[C@H](CCCCN)NC(=O)[C@H](C)NC(=O)[C@@H](N)Cc1ccccc1)C(N)=O [FAKKLAKALL] | MIC [1]: 90.7 µM (≈ 99.9 µg/mL); MIC [2]: 90.7 µM (≈ 99.9 µg/mL)
5 |  | > 60.2 | ≥ 60.2 | CC[C@H](C)[C@H](NC(=O)[C@H](CO)NC(=O)[C@H](CCCCN)NC(=O)[C@@H](NC(=O)[C@@H](NC(=O)[C@@H](NC(=O)[C@@H](NC(=O)[C@H](CCCCN)NC(=O)[C@@H](NC(=O)[C@@H](NC(=O)[C@@H](N)CCCCN)[C@@H](C)CC)C(C)C)C(C)C)[C@@H](C)CC)[C@@H](C)O)C(C)C)C(=O)N[C@@H](CO)C(=O)N1CCC[C@H]1C(=O)N[C@@H](C)C(=O)N[C@@H](CO)C(=O)N[C@@H](CC(C)C)C(=O)N[C@H](C(=O)N1CCC[C@H]1C(=O)N[C@H](C(=O)N[C@@H](Cc1ccccc1)C(=O)O)C(C)C)C(C)C [KIVKVITVKSISPASLVPVF] | 
6 | 0.769 (≈ 1.4 µg/mL) | 44.9 (≈ 81.7 µg/mL) |  | CC[C@H](C)[C@H](NC(=O)[C@H](CC(C)C)NC(=O)[C@H](C)NC(=O)[C@@H]1CCCN1C(=O)[C@H](CC(C)C)NC(=O)CN)C(=O)N[C@@H](CC(C)C)C(=O)N[C@@H](Cc1c[nH]c2ccccc12)C(=O)N[C@H](C(=O)N[C@@H](CCCCN)C(=O)N[C@@H](CCCN=C(N)N)C(=O)N[C@@H](CCCCN)C(=O)N[C@@H](CCCN=C(N)N)C(=O)N[C@@H](CCC(N)=O)C(=O)N[C@@H](CCC(N)=O)C(N)=O)[C@@H](C)CC [GLPALILWIKRKRQQ] | MIC [8]: 0.352 µM (≈ 0.64 µg/mL)
7 |  |  |  | CC[C@H](C)[C@H](NC(=O)[C@H](CCCCN)NC(=O)[C@H](CCCCN)NC(=O)[C@H](Cc1ccccc1)NC(=O)[C@H](CC(C)C)NC(=O)[C@H](CCCCN)NC(=O)[C@H](CCCCN)NC(=O)[C@@H](N)Cc1c[nH]c2ccccc12)C(=O)N[C@@H](CC(C)C)C(=O)N[C@@H](CCCCN)C(=O)N[C@@H](Cc1ccc(O)cc1)C(=O)N[C@@H](CC(C)C)C(N)=O [WKKLFKKILKYL] | MIC [9]: 2.98 µM (≈ 4.8 µg/mL); MIC [4]: 0.746 µM (≈ 1.2 µg/mL); MIC [10]: 1.49 µM (≈ 2.4 µg/mL); MIC [11]: 2.11 µM (≈ 3.39 µg/mL)
8 | 30.3 (≈ 64 µg/mL) | 30.3 (≈ 64 µg/mL) | 15.2 (≈ 32 µg/mL) | CC(C)C[C@H](NC(=O)[C@H](CCCCN)NC(=O)[C@H](Cc1ccccc1)NC(=O)[C@@H](NC(=O)CNC(=O)CNC(=O)[C@H](CC(C)C)NC(=O)[C@@H](N)Cc1ccccc1)C(C)C)C(=O)N[C@@H](C)C(=O)N[C@@H](CO)C(=O)N[C@@H](CCCCN)C(=O)N[C@H](C(=O)N[C@@H](Cc1ccccc1)C(=O)N1CCC[C@H]1C(=O)N[C@@H](C)C(=O)N[C@H](C(=O)N[C@@H](Cc1ccccc1)C(=O)NCC(=O)N[C@@H](CCCCN)C(=O)N[C@H](C(=O)O)C(C)C)C(C)C)C(C)C [FLGGVFKLASKVFPAVFGKV] | 
9 |  | 58.8 (≈ 128 µg/mL) | ≥ 118 | CC[C@H](C)[C@H](NC(=O)[C@H](CCCCN)NC(=O)[C@H](Cc1ccccc1)NC(=O)[C@@H](NC(=O)[C@H](C)NC(=O)[C@@H]1CCCN1)C(C)C)C(=O)N[C@@H](C)C(=O)N[C@@H](CO)C(=O)N[C@@H](CCCCN)C(=O)N[C@H](C(=O)N[C@H](C(=O)N1CCC[C@H]1C(=O)N[C@@H](CO)C(=O)N[C@H](C(=O)N[C@@H](Cc1ccc(O)cc1)C(=O)N[C@@H](CS)C(=O)N[C@@H](CCCCN)C(=O)N[C@H](C(=O)N[C@@H](CO)C(=O)N[C@@H](CCCN=C(N)N)C(=O)O)C(C)C)C(C)C)C(C)C)C(C)C [PAVFKIASKVVPSVYCKVSR] | 
10 |  | > 121 | ≥ 121 | CC[C@H](C)[C@H](NC(=O)[C@H](CCCN=C(N)N)NC(=O)CNC(=O)[C@@H](NC(=O)[C@H](Cc1ccccc1)NC(=O)[C@@H]1CCCN1C(=O)[C@H](CC(C)C)NC(=O)[C@@H](N)Cc1ccccc1)C(C)C)C(=O)N[C@@H](C)C(=O)N[C@@H](CO)C(=O)N[C@@H](CCCCN)C(=O)N[C@H](C(=O)N[C@H](C(=O)N1CCC[C@H]1C(=O)N[C@@H](CO)C(=O)N[C@H](C(=O)N[C@H](C(=O)NCC(=O)N[C@@H](CCCCN)C(=O)N[C@H](C(=O)O)C(C)C)[C@@H](C)CC)C(C)C)C(C)C)C(C)C [FLPFVGRIASKVVPSVIGKV] | 
11 | 0.663 (≈ 1.2 µg/mL) | 39.1 (≈ 70.8 µg/mL) |  | CC[C@H](C)[C@H](NC(=O)[C@H](CC(C)C)NC(=O)[C@H](C)NC(=O)[C@H](CC(C)C)NC(=O)[C@H](CC(C)C)NC(=O)CN)C(=O)N[C@@H](CO)C(=O)N[C@@H](Cc1c[nH]c2ccccc12)C(=O)N[C@H](C(=O)N[C@@H](CCCCN)C(=O)N[C@@H](CCCN=C(N)N)C(=O)N[C@@H](CCCCN)C(=O)N[C@@H](CCCN=C(N)N)C(=O)N[C@@H](CCC(N)=O)C(=O)N[C@@H](CCC(N)=O)C(N)=O)[C@@H](C)CC [GLLALISWIKRKRQQ] | MIC [8]: 1.22 µM (≈ 2.2 µg/mL)
12 |  | > 100 |  | CC[C@H](C)[C@H](N)C(=O)N[C@@H](CC(N)=O)C(=O)N[C@@H](CO)C(=O)N[C@@H](CC(C)C)C(=O)N[C@@H](CCCCN)C(=O)N[C@@H](CC(C)C)C(=O)NCC(=O)N[C@@H](CCCCN)C(=O)N[C@@H](CCCCN)C(=O)N[C@H](C(=O)N[C@@H](CC(C)C)C(=O)NCC(=O)N[C@@H](C)C(=O)N[C@@H](CC(C)C)C(N)=O)[C@@H](C)CC [INSLKLGKKILGAL] | MIC [8]: ≥ 100 µM
13 | 1.86 (≈ 4 µg/mL) | 29.7 (≈ 64 µg/mL) | 7.43 (≈ 16 µg/mL) | CC(C)C[C@H](NC(=O)[C@H](CCCCN)NC(=O)[C@H](Cc1ccccc1)NC(=O)[C@@H](NC(=O)[C@@H](NC(=O)CNC(=O)[C@H](CC(C)C)NC(=O)[C@@H](N)Cc1ccccc1)C(C)C)C(C)C)C(=O)N[C@@H](C)C(=O)N[C@@H](CO)C(=O)N[C@@H](CCCCN)C(=O)N[C@H](C(=O)N[C@@H](Cc1ccccc1)C(=O)N1CCC[C@H]1C(=O)N[C@@H](C)C(=O)N[C@H](C(=O)N[C@@H](Cc1ccccc1)C(=O)NCC(=O)N[C@@H](CCCCN)C(=O)N[C@H](C(N)=O)C(C)C)C(C)C)C(C)C [FLGVVFKLASKVFPAVFGKV] | 
14 |  |  |  | CC[C@H](C)[C@H](NC(=O)[C@H](C)NC(=O)[C@H](CCCN=C(N)N)NC(=O)[C@H](Cc1ccc(O)cc1)NC(=O)[C@H](CC(C)C)NC(=O)[C@H](CC(N)=O)NC(=O)[C@H](Cc1ccc(O)cc1)NC(=O)CNC(=O)[C@H](C)NC(=O)[C@@H](NC(=O)[C@@H](NC(=O)[C@@H](NC(=O)[C@H](CCCN=C(N)N)NC(=O)[C@@H](NC(=O)[C@@H](NC(=O)[C@@H](NC(=O)[C@@H]1CCCN1C(=O)[C@H](Cc1c[nH]c2ccccc12)NC(=O)[C@H](Cc1ccccc1)NC(=O)[C@H](CCCN=C(N)N)NC(=O)[C@H](CCCCN)NC(=O)[C@@H](NC(=O)[C@@H](N)CCCN=C(N)N)[C@@H](C)CC)C(C)C)C(C)C)[C@@H](C)CC)[C@@H](C)O)C(C)C)C(C)C)C(=O)N[C@@H](CCCCN)C(=O)O [RIKRFWPVVIRTVVAGYNLYRAIK] | MIC [3]: 0.201 µM (≈ 0.586 µg/mL); MIC [8]: 1.61 µM (≈ 4.69 µg/mL); MIC [12]: 2.41 µM (≈ 7.03 µg/mL); MIC [4]: 0.803 µM (≈ 2.34 µg/mL)
